The values below come from patent US20180162844A1, “CYCLOPROPANE DERIVATIVE AND DRUG CONTAINING SAME” (EA PHARMA CO., LTD., priority 2015, published 2018).

pIC50: −log10 of the molar value.

One may read the pIC50 as the negative decadic logarithm of the IC50, by convention in mol/L.

T1 sequence (O75762 whole entry): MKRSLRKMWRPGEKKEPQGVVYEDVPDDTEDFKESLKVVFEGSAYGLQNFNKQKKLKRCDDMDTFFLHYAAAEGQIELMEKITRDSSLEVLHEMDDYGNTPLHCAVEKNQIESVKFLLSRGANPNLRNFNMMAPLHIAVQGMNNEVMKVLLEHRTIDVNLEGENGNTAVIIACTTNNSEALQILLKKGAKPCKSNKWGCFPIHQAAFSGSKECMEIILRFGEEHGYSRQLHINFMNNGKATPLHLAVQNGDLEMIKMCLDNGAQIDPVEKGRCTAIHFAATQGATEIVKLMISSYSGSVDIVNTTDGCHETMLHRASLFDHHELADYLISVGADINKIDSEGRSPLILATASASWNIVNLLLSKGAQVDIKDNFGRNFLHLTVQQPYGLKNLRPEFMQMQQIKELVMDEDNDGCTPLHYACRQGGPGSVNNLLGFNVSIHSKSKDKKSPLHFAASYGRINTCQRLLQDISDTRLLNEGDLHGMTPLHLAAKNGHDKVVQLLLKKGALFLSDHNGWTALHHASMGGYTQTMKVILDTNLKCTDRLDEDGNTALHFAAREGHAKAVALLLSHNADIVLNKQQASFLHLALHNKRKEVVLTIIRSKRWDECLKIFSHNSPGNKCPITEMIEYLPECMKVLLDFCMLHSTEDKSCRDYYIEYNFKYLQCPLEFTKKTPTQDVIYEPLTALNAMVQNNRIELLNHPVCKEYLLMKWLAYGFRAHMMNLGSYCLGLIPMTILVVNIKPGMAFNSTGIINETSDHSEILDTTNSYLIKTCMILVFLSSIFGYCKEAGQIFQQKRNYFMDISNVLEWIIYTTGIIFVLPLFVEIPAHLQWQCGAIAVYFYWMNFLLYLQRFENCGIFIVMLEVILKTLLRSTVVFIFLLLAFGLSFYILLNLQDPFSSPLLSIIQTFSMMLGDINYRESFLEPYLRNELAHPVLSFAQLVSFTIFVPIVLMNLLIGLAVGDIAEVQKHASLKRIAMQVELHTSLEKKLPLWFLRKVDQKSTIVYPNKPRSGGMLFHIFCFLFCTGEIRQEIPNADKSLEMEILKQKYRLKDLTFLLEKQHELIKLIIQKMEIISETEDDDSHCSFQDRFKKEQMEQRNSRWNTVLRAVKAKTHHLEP

The first assay has as its target T1, human TRPA1 (Homo sapiens, UniProt O75762).
T1 construct: full-length human TRPA1 gene was amplified; expressed in transfected cells; host or cells: Human embryonic kidney-derived 293T cells, transient transfection with pcDNA3.1/zeo(+) human TRPA1 expression plasmid
The experiment in a line: Measurement of TRPA1 antagonist activity (intracellular calcium increase, allylisothiocyanate stimulation, 293T cells transfected with human TRPA1 expression plasmid). The assay is classed as cell-based. The note with it: Comparative Examples (Table 8-2); 293T cells expressing human TRPA1, allylisothiocyanate stimulation, FLIPR Calcium4, test substance added 10 min before AITC; read-out: hTRPA1 IC50. The method, then:
Experimental Example 1: Measurement of TRPA1 antagonist Activity
Human TRPA1 Expression Plasmid
Using cDNA encoding human TRPA1 (GenBank accession No. NM_007332) (manufactured by Kazusa DNA Research Institute, item No.: FHC07217) as a template, primer 1 (SEQ ID NO: 1) and primer 2 (SEQ ID NO: 2), PCR by PfuUltra High-Fidelity DNA Polymerase (Stratagene) was performed, and full-length human TRPA1 gene was amplified.
A recognition site (underlined) of restriction enzyme HindIII was added to the 5′ end of human TRPA1 gene, and XbaI site (underlined) was added to the 3′ end of human TRPA1 gene, and GTT of the template sequence was changed to termination codon TAG (bold). The obtained double stranded DNA was enzyme-digested with HindIII and XbaI, and introduced into a multicloning site of expression plasmid pcDNA3.1/zeo(+) (manufactured by Invitrogen) to give a human TRPA1 expression plasmid.
Human embryonic kidney-derived 293T cells were cultured in Dulbecco's Modified Eagle Medium containing 10% fetal bovine serum, 10 unit penicillin, and 10 μg streptomycin. One day before assay, 3×10^6 of 293T cells were plated on a petri dish having a diameter of 10 cm, and cultured in a CO2 incubator for 24 hr. OPTI-MEM I Reduced Serum Media (Invitrogen). (600 μL), Mirus TransIT-293 (Mirus Bio) (18 μL), and human TRPA1 expression plasmid (6 μg) were mixed, the total amount of the mixture was added to the cells on the petri dish to allow for gene transfer. The cells were recovered about for 8 hr later, plated on a poly-D-lysine coated 384 well black/clear bottom plate at 12,000 cells/well, and cultured overnight.
Measurement of Intracellular Calcium Increase
The medium was removed from the 384 well plate, calcium indicator (Molecular Device, trade name: FLIPR Calcium4 Assay Kit) dissolved in HBSS (Thermo Fisher Scientific) (pH 7.2) containing 20 mM HEPES was added (38 μL/well), and the cells were stained in a CO2 incubator for 1 hr. The 384 well plate was stood at room temperature for not less than 15 min, set on FDSS7000 (Hamamatsu Photonics K.K.), and a test substance solution was added at 10 μL/well. After 10 min, allylisothiocyanate solution (12 μL/well) was added, the relative fluorescence intensity was measured for 5 min after addition of the allylisothiocyanate solution.
Preparation of Test Substance Solution and Allylisothiocyanate Solution
A test substance solution was prepared to have a composition of HBSS (Thermo Fisher Scientific) (pH 7.2) containing 0.48% dimethyl sulfoxide, a test substance at 4.8-fold concentration of the evaluation concentration, 0.1% bovine serum albumin and 20 mM HEPES. An allylisothiocyanate solution was prepared to have a composition of HBSS (Thermo Fisher Scientific) (pH 7.2) containing 0.1% dimethyl sulfoxide, 100 μM allylisothiocyanate, 0.1% bovine serum albumin and 20 mM HEPES.
Calculation of Antagonist Activity
The activity rate of a test substance at each concentration was calculated, wherein the relative fluorescence intensity change of a well free of a test substance and containing allylisothiocyanate is 100% activity rate, and the relative fluorescence intensity change of a well free of a test substance and allylisothiocyanate is 0% activity rate. The inhibitory rate of a test substance at each concentration was calculated by subtracting the activity rate of the test substance from 100% activity rate, and the concentration of a test substance showing 50% inhibitory rate was calculated as IC50 from the sigmoid approximate curve by XLFit (idbs).
A general note: Calcium flux is commonly read through the fluorescence of an indicator in the cells.
Consider `O=C(NCc1cc(-c2ccc(C(F)(F)F)cc2)nc(N2CCCC2)c1)C1(NS(=O)(=O)c2ccco2)CC1` [Comparative Example 3, 1-(2-furylsulfonylamino)-N-[[2-pyrrolidin-1-yl-6-[4-(trifluoromethyl)phenyl]-4-pyridyl]methyl]cyclopropanecarboxamide, reference compound], for which the negative logarithm of the IC50 (pIC50) was below 6.00.

Staying with this assay, now noted: Examples (Table 8-1); 293T cells expressing human TRPA1, allylisothiocyanate stimulation, FLIPR Calcium4, test substance added 10 min before AITC; read-out: hTRPA1 IC50.
In the case of `O=C(NCc1cc(-c2ccc(C(F)(F)F)cc2)ncn1)C1(NS(=O)(=O)c2cc3cc(F)ccc3o2)CC1` [Example 1, 1-[(5-fluorobenzofuran-2-yl)sulfonylamino]-N-[[6-[4-(trifluoromethyl)phenyl]pyrimidin-4-yl]methyl]cyclopropanecarboxamide], the pIC50 was 7.48. Turning to `O=C(NCc1cc(-c2ccc(OC(F)(F)F)cc2)ncn1)C1(NS(=O)(=O)c2cc3cc(F)ccc3o2)CC1` [Example 11, 1-[(5-fluorobenzofuran-2-yl)sulfonylamino]-N-[[6-[4-(trifluoromethoxy)phenyl]pyrimidin-4-yl]methyl]cyclopropanecarboxamide], the pIC50 was 7.40.

Take `O=C(NCc1cncc(-c2ccc(C(F)(F)F)nc2)c1)C1(NS(=O)(=O)c2cc3cc(F)ccc3o2)CC1` [Example 9, 1-[(5-fluorobenzofuran-2-yl)sulfonylamino]-N-[[5-[6-(trifluoromethyl)-3-pyridyl]-3-pyridyl]methyl]cyclopropane-carboxamide]: the negative logarithm of the IC50 (pIC50) is 6.77.

Take `O=C(NCc1cc(-c2ccc(C(F)(F)F)cc2O)ncn1)C1(NS(=O)(=O)c2cc3cc(F)ccc3o2)CC1` [Example 20, 1-[(5-fluorobenzofuran-2-yl)sulfonylamino]-N-[[6-[2-hydroxy-4-(trifluoromethyl)-phenyl]pyrimidin-4-yl]methyl]cyclopropanecarboxamide]: the pIC50 was 7.64. On the same count and under the same terms, next, `O=C(NCc1cc(-c2ccc(C(F)(F)F)cc2)nc(N2CCCC2)c1)C1(NS(=O)(=O)c2cc3cc(F)ccc3o2)CC1` [Example 27, 1-[(5-fluorobenzofuran-2-yl)sulfonylamino]-N-[[2-pyrrolidin-1-yl-6-[4-(trifluoromethyl)phenyl]-4-pyridyl]methyl]-cyclopropanecarboxamide]: 7.07. Still for that read-out and setting: for `O=C(NCc1cc(-c2cnc(C(F)(F)F)cn2)ccn1)C1(NS(=O)(=O)c2cc3cc(F)ccc3o2)CC1` [Example 7, 1-[(5-fluorobenzofuran-2-yl)sulfonylamino]-N-[[4-[5-(trifluoromethyl)pyrazin-2-yl]-2-pyridyl]methyl]cyclopropane-carboxamide] the value was 6.77; for `O=C(NCc1cc(-c2ccc(C(F)(F)F)nn2)ccn1)C1(NS(=O)(=O)c2cc3cc(F)ccc3o2)CC1` [Example 8, 1-[(5-fluorobenzofuran-2-yl)sulfonylamino]-N-[[4-[6-(trifluoromethyl)pyridazin-3-yl]-2-pyridyl]methyl]cyclopropane-carboxamide], 7.13. The same measure, in the same setting: for `CC(C)N(C1(C(=O)NCc2cc(-c3ccc(C(F)(F)F)nc3)ncn2)CC1)S(=O)(=O)c1cc2cc(F)ccc2o1` [Example 24, 1-[(5-fluorobenzofuran-2-yl)sulfonyl-isopropyl-amino]-N-[[6-[6-(trifluoromethyl)-3-pyridyl]pyrimidin-4-yl]methyl]cyclopropanecarboxamide] the value was 8.48; for `O=C(NCc1cncc(-c2ccc(C(F)(F)F)cn2)c1)C1(NS(=O)(=O)c2cc3cc(F)ccc3o2)CC1` [Example 10, 1-[(5-fluorobenzofuran-2-yl)sulfonylamino]-N-[[5-[5-(trifluoromethyl)-2-pyridyl]-3-pyridyl]methyl]cyclopropane-carboxamide], 6.96. Consider `O=C(NCc1cc(-c2ccc(C(F)(F)F)cn2)ccn1)C1(NS(=O)(=O)c2cc3ccccc3o2)CC1` [Example 22, 1-(benzofuran-2-ylsulfonylamino)-N-[[4-[5-(trifluoromethyl)-2-pyridyl]-2-pyridyl]methyl]-cyclopropanecarboxamide], for which the pIC50 is 6.89. Turning to `O=C(NCc1cc(-c2ccc(C(F)(F)F)cn2)ccn1)C1(NS(=O)(=O)c2cc3cc(F)ccc3o2)CC1` [Example 4, 1-[(5-fluorobenzofuran-2-yl)sulfonylamino]-N-[[4-[5-(trifluoromethyl)-2-pyridyl]-2-pyridyl]methyl]cyclopropane-carboxamide], the pIC50 is 7.66. Still for that read-out and setting: next, `CC(C)N(C1(C(=O)NCc2cc(-c3ccc(C(F)(F)F)nc3)ncn2)CC1)S(=O)(=O)c1cc2ccccc2o1` [Example 25, 1-[benzofuran-2-ylsulfonyl(isopropyl)amino]-N-[[6-[6-(trifluoromethyl)-3-pyridyl]pyrimidin-4-yl]methyl]cyclopropanecarboxamide]: 8.09; `O=C(NCc1cc(-c2ccc(C(F)(F)F)cc2)nc(N2CCCC2)c1)C1(NS(=O)(=O)c2cc3ccccc3o2)CC1` [Example 28, 1-(benzofuran-2-ylsulfonylamino)-N-[[2-pyrrolidin-1-yl-6-[4-(trifluoromethyl)phenyl]-4-pyridyl]methyl]-cyclopropanecarboxamide]: 6.59. On the same count and under the same terms, for `O=C(NCc1cc(-c2ccc(C(F)(F)F)cn2)cnn1)C1(NS(=O)(=O)c2cc3cc(F)ccc3o2)CC1` [Example 17, 1-[(5-fluorobenzofuran-2-yl)sulfonylamino]-N-[[5-[5-(trifluoromethyl)-2-pyridyl]pyridazin-3-yl]methyl]cyclopropanecarboxamide] the value was 6.62; for `CN(C)c1nc(CNC(=O)C2(NS(=O)(=O)c3cc4ccccc4o3)CC2)cc(-c2ccc(C(F)(F)F)cc2)n1` [Example 23, 1-(benzofuran-2-ylsulfonylamino)-N-[[2-(dimethylamino)-6-[4-(trifluoromethyl)phenyl]pyrimidin-4-yl]methyl]cyclopropanecarboxamide], 7.00; for `O=C(NCc1cc(-c2ccc(C(F)(F)F)cc2)ncn1)C1(NS(=O)(=O)c2cc3cnccc3o2)CC1` [Example 26, 1-(furo[3,2-c]pyridin-2-ylsulfonylamino)-N-[[6-[4-(trifluoromethyl)phenyl]pyrimidin-4-yl]methyl]cyclopropanecarboxamide], 7.35.

On to `O=C(NCc1cc(-c2ccc(C(F)(F)F)nc2)ncn1)C1(NS(=O)(=O)c2cc3cc(F)ccc3o2)CC1` [Example 12, 1-[(5-fluorobenzofuran-2-yl)sulfonylamino]-N-[[6-[6-(trifluoromethyl)-3-pyridyl]pyrimidin-4-yl]methyl]cyclopropanecarboxamide], for which the pIC50 is 7.52. The same measure, in the same setting: for `O=C(NCc1cc(-c2ccc(C(F)(F)F)cn2)ncn1)C1(NS(=O)(=O)c2cc3cc(F)ccc3o2)CC1` [Example 13, 1-[(5-fluorobenzofuran-2-yl)sulfonylamino]-N-[[6-[5-(trifluoromethyl)-2-pyridyl]pyrimidin-4-yl]methyl]cyclopropanecarboxamide] the value was 6.96; for `CN(C1(C(=O)NCc2cc(-c3ccc(C(F)(F)F)cn3)ccn2)CC1)S(=O)(=O)c1cc2cc(F)ccc2o1` [Example 29, 1-[(5-fluorobenzofuran-2-yl)sulfonyl-methyl-amino]-N-[[4-[5-(trifluoromethyl)-2-pyridyl]-2-pyridyl]methyl]-cyclopropanecarboxamide], 8.92.
